Test results reported in paper PMC2635646, “Recognition Properties and Competitive Assays of a Dual Dopamine/Serotonin Selective Molecularly Imprinted Polymer” (International Journal of Molecular Sciences, 2008).
Where a name gives a salt, the structure may show the parent alone. Read-outs that look alike come from different tables or passages of the source.

Columns and labels:
[1] = target: dopamine receptors derived from rat hypothalamus; assay: Displacement of D probe from natural receptor; type: binding, male-Wistar rat; conditions: 10 mg protein, 0.25 μmole D in 1 mL (250 μM), 37 °C, mean ± SD, n = 4; read-out: Ki, D ligand, Rat hypothalamus
Description: (§1) The equilibrium binding constants of the ergots on dopamine and serotonin receptors derived from rat hypothalamus was examined in a displacement assay using the added D and S as the molecular probes. The male-Wistar rat hypothalami receptors were isolated using a previously described procedure. The receptor pellets were washed with 50 mM Tris HCl until the endogenous D and S are no longer found in the rinse as examined by the fluorescence method described in the binding study. The pellets were then re-suspended in 50 mM Tris HCl with 0.5 mM Na2EDTA, 0.1% Na ascorbate before use. The protein content of the receptor pellets was verified by using the procedure of Bradford. Saturation experiments for the rat hypothalamus receptor were carried out by varying the concentration of D or S ligand in a 50 mM Tris HCl with 0.5 mM Na2EDTA and 0.1% Na ascorbate solution at 37 °C. The D and S binding at various concentrations was determined, using the fluorescence spectroscopic method for assay of the unbound probe as in the binding study.
(§2) The ability of 6–8 concentrations of test ergot (0.1–500 μg/mL or 0.16–890.20 μM) for typical profiles) to displace 0.25 μmole D and S probes was measured in drug displacement studies. […] To examine the equilibrium binding constant for the ergots, the unbound D and S probes was measured by fluorescence spectroscopy with the use of cation exchange resin to separate the protein bound and unbound probes. All experiments were performed four times using 50 mM Tris HCl with 0.5 mM Na2EDTA, 0.1% Na ascorbate as the medium, to which 10 mg of protein was added giving a final volume of 1 mL. The tubes were allowed to equilibrate for 30 min at 37 °C before filtering with a 0.45 μm cellulose acetate syringe filter (Whatman, NJ, USA) and were washed with two 5 mL ice-cold Tris-buffer. The filters were lyophilized and analysed for free probes. The supernatant aliquots were then passed through small columns of Amberlite CG-50 as previously reported. The 3 mL of formic acid-ethanol (1:3, v/v) eluates containing the analytes were evaporated to dryness in a polyethylene vial and the residues reconstituted with methanol (5 mL) before assay using fluorescence spectrometry. The binding of D and S probes in the presence of the ergots was calculated and plotted to the ergot concentrations for determination of IC50. An apparent Ki value was calculated in the same manner as described for the competitive ligand binding assay with DS-MIP.

[2] = Time course of binding of ergot compounds to DS-MIP (HPLC-ECD assay); conditions: 4:1 (v/v) methanol/water, 28 ± 1 °C
Description: The specificity of binding of a group of ergoline derivatives (ergocryptine, ergocornine, ergocristine, ergonovine, agroclavine, pergolide and terguride) to DS-MIP was assessed in 4:1 (v/v) methanol/water at room temperature (28 ± 1 °C). The binding of all the ergots to DS-MIP reached a constant value within 3 h, with ~50% of the DS-MIP-analyte complex being formed by 1 h (Figure 7). […] Based on the specific binding of the ergots to DS-MIP, the tested ergots are readily distinguished into three groups, based on their chemical structures. All of the ergot derivatives tested had typical four fused rings, indolyl amine, piperidinyl amine, and N-methyl and heteroatom-containing alkylpiperidinyl substituents (except pergolide with the N-propyl substituent). The differential binding of the ergot derivatives is probably a consequence of the interaction of the piperidinyl and indolyl amines with acidic and amide functions within the polymer. The orientation of functional entities within the D and S imprinted cavities was not optimal to complement the ergot derivatives, but they existed in sufficient numbers to produce the observed binding effect.
Figure 7. Time course for the binding of ergot compounds to DS-MIP at room temperature (28 ± 1 °C). Binding studies were conducted in 4:1 (v/v) methanol/water using 12.5 mg of polymer and 12.5 μg of each ergot in a final volume of 5 mL (4.1–10.5 μM). At equilibrium, analytes were quantitated in the filtrate by chromatographic assays as described in the Experimental Section. The values shown are mean ± SD of three replicate specimens.
The binding reactivities of ergocryptine, ergocristine, ergocornine, ergonovine, agroclavine, pergolide and terguride, in an incubation medium were evaluated using a chromatographic assay. Briefly, DS-MIP particulates (2.5 mg/mL) were incubated between 0 and 13 h in 10-mL vials at room temperature by agitation with each ergot compound (2.5 μg/mL, 4.1–10.5 μM) in methanol/water (5 mL, 4:1, v/v). At pre-determined time intervals, the filtrate was analysed for the amount of unbound substance by HPLC (see below). The percentage of ergot bound to the polymer was plotted as a function of the incubation time. Each experiment was repeated three times.
A reversed phase HPLC-ECD detection method was used for assay of the ergots. A mobile phase comprising of a buffer (pH 7.4) and methanol (34:66, % v/v) was used for elution. The buffer composition was as follows: 15 mM KH2PO4, 3.75 mM sodium heptanesulfonate and 7.5 mM KCl aqueous solution adjusted to pH 7.4 by phosphoric acid. The analytical column was a Luna 5μ C18, 25 cm × 0.46 cm (Phenomenex, CA, USA). A flow-rate of 1.0 mL/min was used. The electrochemical detector was set at 0.8 V potential. Correlation coefficients for calibration curves for the ergots in the range 2–25 μg/mL ([…]) were greater than 0.999. The sensitivity of detection was about 1.0 μg/mL (1.64–4.20 μM) and the reproducibility of the peak areas of analytes was more than 95%.

[3] = Competitive ligand binding assay on DS-MIP with D as fluorescent probe; conditions: 25 mg polymer, D 6.60 μM, 5 mL 4:1 methanol/water, 28 ± 1 °C, mean ± SD, n = 3
Description: (§3) In this study, DS-MIP was employed as the sorbent phase for the determination of binding characteristics of the ergot family of alkaloids by competitive ligand binding assay experiment. The ability of the various ergot alkaloids (ergocryptine, ergocornine, ergocristine, ergonovine, agroclavine, pergolide and terguride) to displace bound D and S from the binding sites was measured. Figures 8(a,b) show competitive binding assays with the ergots in the presence of D and S as fluorescent probes. The typical sigmoid calibration curves were obtained for both the D ligand and the S ligand. […] Clearly, the ergot derivatives are able to act as competitors at the DS-MIP binding sites.
(§4) Figure 8. Plots of the ratio of the normalized signal (B/Bî) for MIP to that obtained for NIP against the logarithm of the ergot concentrations for the competitive ligand binding assay using DS-MIP as adsorbent phase and (a) D and (b) S as a fluorescent probe. The values shown are mean ± SD of three replicate specimens.
(§5) Seven ergoline compounds (ergocryptine, ergocristine, ergocornine, ergonovine, agroclavine, pergolide and terguride) were assessed for their ability to displace D or S bound to DS-MIP. DS-MIP or NIP particles (25 mg) were mixed with 6.25 μg of either D (or S) and varying amounts of ergot (final concentration: 0.02 - 500 μg/mL or 0.03 - 890.20 μM) in the suspension solvent (4:1, v/v methanol/water) up to a final volume of 5 ml. The mixture was incubated for 8 h at room temperature, maintaining constant stirring. The changes in fluorescence intensity of D probe in solution were monitored at 320 nm following excitation at 279 nm; for the S probe in solution, monitoring was at 335 nm after excitation at 300 nm. The experimental signals were normalized as: B/Bî, where B is the fluorescence intensity measured in the presence of increasing ergot concentrations and Bî is the signal in the absence of the ergot compound. The ratio of the normalized signal for MIP to that obtained for NIP was plotted as a function of the logarithm of the competitor concentration. Statistical analysis of concentration-response curves was performed by using the computer program GraphPad software, which calculates the lower and upper plateaus, the slope, and the IC50, concentration of an inhibitor producing 50% inhibition. An apparent inhibition constant (Ki) value was calculated using eq (3): (3) Ki=IC50/(1+[L]/Kd) where Ki = apparent inhibitor constant, [L] = free concentration of dopamine or serotonin, and Kd = apparent dissociation constant of a given MIP for D (or S). All experiments were performed in triplicate.

[4] = target: serotonin receptors derived from rat hypothalamus; assay: Displacement of S probe from natural receptor; type: binding, male-Wistar rat; conditions: 10 mg protein, 0.25 μmole S in 1 mL (250 μM), 37 °C, mean ± SD, n = 4; read-out: Ki, S ligand, Rat hypothalamus
Description: as §1, §2

[5] = Competitive ligand binding assay on DS-MIP with S as fluorescent probe; conditions: 25 mg polymer, S 5.90 μM, 5 mL 4:1 methanol/water, 28 ± 1 °C, mean ± SD, n = 3
Description: as §3, §4, §5

[6] = test system: dopamine receptors derived from rat hypothalamus; conditions: D ligand, 50 mM Tris HCl, 37 °C, mean ± SD, n = 3
Description: as §1

[7] = 1H-NMR titration of template/functional monomer complexation; type: binding; conditions: d6-DMSO, 25 °C
Source text: A mixture of methanol and water (4:1, v/v) was chosen as the porogen solvent for the D and S templates, as the hydrochloride salts were soluble only in polar solvents. The strength and positioning of the monomer-template interactions are of importance in developing materials with good molecular recognition properties. For the current work, the functional monomers and cross-linker had been constructed into the MIP structure with a view toward obtaining an efficient recognition system in a polar medium. MAA and ACM were generally used as functional monomers for the imprinting process. Both D and S have a phenolic hydroxyl and the nitrogen atom(s) of the amine group(s) acts as a hydrogen donor-acceptor moiety for binding functional monomers with a corresponding hydrogen bonding pattern. […] However, the huge excess of water and methanol that would be form H-bonds in competition with template and monomer, would reduce binding energy between template and monomer. […] The MBAA cross-linker also forms hydrogen bonds with the carboxylic acid and amino groups of the templates. Figure 2 illustrates the dual dopamine/serotonin molecular recognition site generation in this work.
The change in chemical shifts of proton resonances as a function of D (or S) concentrations was studied in DMSO-d6.

[8] = test system: serotonin receptors derived from rat hypothalamus; assay: Saturation binding of S ligand to rat hypothalamus receptor (Scatchard); set-up: species or system male-Wistar rat; conditions: 50 mM Tris HCl, 37 °C, mean ± SD
Description: as §1

With `CC1=C[C@@H]2c3cccc4[nH]cc(c34)C[C@H]2N(C)C1` [Agroclavine, agroclavine] the Ki [1] was 1.5 ± 0.2 nM, the “binding with DS-MIP” value ([2]; DS-MIP 2.5 mg/mL, ergot 2.5 μg/mL) was 70% and the Ki [3] was 0.4 ± 0.01 µM. It also gave a Ki [4] of 0.0012 ± 0.0001 µM and a Ki [5] of 5.31 ± 0.22 µM.
In the case of `NCCc1ccc(O)c(O)c1` [D, Dopamine hydrochloride], the “receptor binding (Bmax)” value [6] is reported as 1.50 ± 0.09 pmol/mg protein, the Kd ([6]; read-out: dissociation constant (Kd)) is reported as 0.00053 ± 0.00015 µM and the Kd ([7]; 1:1 complex of D with single monomer, read-out: apparent dissociation constant (app. Kdiss) of complex with ACM) is reported as 1980 ± 100 µM. For the same molecule, the Kd ([7]; 1:1 complex of D with single monomer, read-out: apparent dissociation constant (app. Kdiss) of complex with MAA) was 2120 ± 200 µM.
In the case of `CC(C)[C@H]1C(=O)N2CCC[C@H]2[C@]2(O)O[C@](NC(=O)[C@@H]3C=C4c5cccc6[nH]cc(c56)C[C@H]4N(C)C3)(C(C)C)C(=O)N12` [Ergocornine, ergocornine], the Ki [1] is reported as 10.4 ± 0.2 nM, the “binding to DS-MIP, fold lower than agroclavine” value [2] is reported as “about 2 fold” and the Ki [3] is reported as 217 ± 2.59 µM. The Ki [4] was 0.02 ± 0.0001 µM and the Ki [5] was 27.2 ± 0.78 µM.
For `CC(C)[C@@]1(NC(=O)[C@@H]2C=C3c4cccc5[nH]cc(c45)C[C@H]3N(C)C2)O[C@@]2(O)[C@@H]3CCCN3C(=O)[C@H](Cc3ccccc3)N2C1=O` [Ergocristine, ergocristine], the Ki [1] was 7.6 ± 0.1 nM, the “binding to DS-MIP, fold lower than agroclavine” value [2] was “about 2 fold” and the Ki [3] was 141 ± 1.47 µM. For the same molecule, the Ki [4] was 0.0068 ± 0.0002 µM and the Ki [5] was 19.3 ± 0.6 µM.
In the case of `CC(C)C[C@H]1C(=O)N2CCC[C@H]2[C@]2(O)O[C@](NC(=O)[C@@H]3C=C4c5cccc6[nH]cc(c56)C[C@H]4N(C)C3)(C(C)C)C(=O)N12` [Ergocryptine, ergocryptine], the Ki [1] is reported as 2.8 ± 0.2 nM, the “binding to DS-MIP, fold lower than agroclavine” value [2] is reported as “about 2 fold” and the Ki [3] is reported as 124.9 ± 1.22 µM. It also gave a Ki [4] of 0.01 ± 0.0004 µM and a Ki [5] of 24.9 ± 0.69 µM.
With `C[C@@H](CO)NC(=O)[C@@H]1C=C2c3cccc4[nH]cc(c34)C[C@H]2N(C)C1` [Ergonovine, ergonovine maleate] the Ki [1] was 2.5 ± 0.1 nM, the “binding to DS-MIP, fold lower than agroclavine” value [2] was ~ 1.25 fold and the Ki [3] was 69.57 ± 0.51 µM. The Ki [4] was 0.0012 ± 0.0001 µM and the Ki [5] was 14.7 ± 0.29 µM.
For `CCCN1C[C@H](CSC)C[C@@H]2c3cccc4[nH]cc(c34)C[C@H]21` [Pergolide, pergolide mesylate], the Ki [1] was 0.7 ± 0.1 nM, the “binding to DS-MIP, fold lower than agroclavine” value [2] was ~ 1.25 fold and the Ki [3] was 0.2 ± 0.01 µM. For the same molecule, the Ki [4] was 0.006 ± 0.0002 µM and the Ki [5] was 12.78 ± 0.09 µM.
Work on `NCCc1c[nH]c2ccc(O)cc12` [S, serotonin hydrochloride] yielded a Kd ([7]; S template, 1:1 complex, read-out: app. Kdiss with MAA, template's hydroxyl group) of 680 ± 100 µM, a Kd ([7]; S template, 1:1 complex, read-out: app. Kdiss with MAA, template's indolyl amino group) of 920 ± 100 µM and a Kd ([7]; S template, read-out: app. Kdiss with ACM, template's hydroxyl group) of 190 ± 100 µM. The Kd ([7]; S template, read-out: app. Kdiss with ACM, template's indolyl amino group) was 430 ± 100 µM, the “receptor binding (Bmax)” value ([8]; n = 3) was 1.11 ± 0.01 pmol/mg protein and the Kd ([8]; n = 3, read-out: dissociation constant (Kd)) was 0.00011 ± 1e-05 µM.
For `CCN(CC)C(=O)N[C@H]1C[C@@H]2c3cccc4[nH]cc(c34)C[C@H]2N(C)C1` [Terguride, terguride], the Ki [1] was 0.03 ± 0.005 nM, the “binding to DS-MIP, fold lower than agroclavine” value [2] was ~ 1.25 fold and the Ki [3] was 0.14 ± 0.01 µM. It also gave a Ki [4] of 0.0013 ± 0.0001 µM and a Ki [5] of 7.79 ± 0.17 µM.
